For this assay, the system named is cancer cells of the spheroid. The assay is described as follows: Spheroid culture with anticancer substance injected through sub-injection part; live/dead cancer cell viability. The format is cell-based. The following applies: spheroid formed for 12 to 36 hours, then anticancer substance for 12 to 36 hours; increasing injected volume of TMZ; Dead/Live/Merge images, microscope. Here is the method: Referring to FIG. 11 to FIG. 13, a spheroid generator 10 in which the size of a sub-injection part 18 is increased from one side to the other side of a culture plate 120 is disposed (S11). In this case, main injection parts 14 having the same size are formed in all of the spheroid generators 10.
A cancer cell solution 21 is prepared (S12). That is, the cancer cell solution 21 is prepared by mixing a plurality of cancer cells with a culture medium 24.
The cancer cell solution 21 is injected into the main injection parts 14 of the plurality of spheroid generators 10 (S13). In this case, since main injection parts 14 having the same size are formed in all of the spheroid generators 10, the same amount of the cancer cell solution 21 is injected into all of the main injection parts 14.
As the cancer cells of the cancer cell solution 21 are cultured in the plurality of spheroid generators 10, a spheroid 25 is formed (S14). In this case, the step of forming a spheroid 25 as the cancer cells of the cancer cell solution 21 are cultured in the plurality of spheroid generators 10 is performed for 12 to 36 hours.
An anticancer substance 23 is injected into a sub-injection part 18 of the plurality of spheroid generators 10 (S15). […]

SMILES strings stand for the structures.

On to `Cn1nnc2c(C(N)=O)ncn2c1=O` [TMZ], for which the “relative viability of cancer cells” value is on record as “decreases”.
